Experimental data published in patent publication US20090082258A1, “Means and Methods for Treating Advanced Stage Neuroblastoma” (priority 2005, published 2009).
Entries after “also recorded” stand apart in the source; their conditions may differ.

Legend:
[1] = system: MYCN amplified neuroblastoma cells (Be(2)-C); assay: Proliferation of MYCN amplified neuroblastoma cells Be(2)-C; format: cell-based; conditions: stronger inhibition than in SH-EP
Experimental: (§1) FIG. 4: Influence of HC-Toxin upon the proliferation of MYCN amplified neuroblastoma cells and cells, which overexpress MYCN. (a) BE(2)-C neuroblastoma cells, (b) WAC2 neuroblastoma cells, and (c) Tet21N neuroblastoma cells.
(§2) MYCN amplified neuroblastoma cells (Be(2)-C), MYCN stably transfected SH-EP-neuroblastoma cells (WAC2) as well as SH-EP cells having an tetracycline inducible MYCN (Tet21N) were treated by HC-Toxin.

[2] = system: MYCN stably transfected SH-EP-neuroblastoma cells (WAC2); assay: Proliferation of MYCN stably transfected SH-EP neuroblastoma cells WAC2; format: cell-based; conditions: stronger inhibition than in SH-EP
Experimental: as §1, §2

[3] = system: SH-EP neuroblastoma cells; assay: Neuronal differentiation of SH-EP neuroblastoma cells (phase contrast microscopy, immunocytochemistry); format: cell-based
Experimental: FIG. 1: HC-Toxin induces neuronal differentiation in SH-EP MYCN-single copy neuroblastoma cells. Cells with neurites longer than twice the diameter of the cell body have been deemed as differentiated cells.
(§3) 5×10*4 SH-EP neuroblastoma cells were cultured in RPMI 1640 medium (including 10% FBS, 1% Pen/Strep). After 24 hours of culture, the cells were treated up to 96 h with 10 to 20 nM HC-Toxin or, as solvent control, with methanol (MeOH) at 37° C., 5% CO2. The morphological changes of the cells were investigated using phase contrast microscopy. After 36 h of treatment, neurite outgrowth was observed. After 72 h of treatment, said neurite outgrowth reached its maximum and was constant if treatment was prolonged (not shown). […] More than 95% of the SH-EP neuroblastoma cells differentiate morphologically when treated with 15 nM HC-Toxin (see FIG. 1c).

primary skin fibroblasts [4] = assay: Cell cycle of primary non-transformed skin fibroblasts; format: cell-based, human; conditions: 15 nM vs methanol control
Experimental: (§4) FIG. 3: Influence of HC-Toxin upon proliferation and cell cycle of primary non-transformed skin fibroblasts.
(§5) In order to determine the effects of HC-Toxin on “normal” body cells, primary skin fibroblasts were treated under the same conditions.

primary skin fibroblasts [5] = assay: Proliferation of primary non-transformed skin fibroblasts; format: cell-based, human; conditions: 10-20 nM, same conditions as SH-EP
Experimental: as §4, §5

[6] = system: nuclear histone deacetylases; assay: Accumulation of acetylated histone H4 in SH-EP cells (Western blot); format: cell-based; conditions: 6 h, 15 mM HC-Toxin [sic]
Experimental: The cells were treated for 6 hours with HC-toxin or the indicated histone deacetylase inhibitors as well as all-trans retinoic acid. Whole-cell extracts were obtained and subjected to Western-Blot analysis using an antibody, which specifically recognizes acetylated histone H4 (H4 Acetyl).
SH-EP-neuroblastoma cells were treated with […] HC-Toxin for 6 h. Subsequently, accumulation of acetylated histone H4 was investigated.

[7] = system: SH-EP neuroblastoma cells; assay: Cell cycle of SH-EP neuroblastoma cells; format: cell-based; conditions: 15 nM vs control cells
Experimental: (§6) FIG. 2: Influence of HC-Toxin upon proliferation, cell cycle, and apoptosis of SH-EP neuroblastoma cells.
(§7) An increase in apoptotic cells from 5% to 20% was observed after 48 h to 72 h of HC-toxin treatment in a dose dependent manner (FIG. 2c).

[8] = system: SH-EP cells having an tetracycline inducible MYCN (Tet21N); assay: Proliferation of SH-EP cells with tetracycline inducible MYCN (Tet21N); format: cell-based; conditions: stronger inhibition than in SH-EP
Experimental: as §1, §2

[9] = system: SH-EP neuroblastoma cells; assay: Apoptosis of SH-EP neuroblastoma cells; format: cell-based; conditions: FIG. 2c
Experimental: as §6, §7

[10] = system: SH-EP neuroblastoma cells; assay: Proliferation of SH-EP neuroblastoma cells; format: cell-based; conditions: 10 to 20 nM
Experimental: as §6, §3, §7

various tumour cells [11] = assay: Antitumoral effects in tumour cells, general statements and comparison with other agents; format: cell-based; conditions: higher concentration
Experimental: The differentiation inducing agent all-trans retinoic acid has to be administered in a 1000-fold higher concentration compared to HC-toxin, acts differently as compared with compounds of the general formula (I) and causes side effects known as the retinoic acid syndrome.
The compounds having a structure as shown in the general formula (I) elicit the aforementioned antitumoral effects in an extremely low dosage already, i.e. at nanomolar concentrations (5-20 nM), in various tumour cells. The mode of action of the compounds apparently encompasses inhibition of histone deacetylases. This finding is supported by the observation that treatment of MYCN single copy and amplified neuroblastoma cells with a compound of the present invention in nanomolar concentration (e.g. 15 nM) leads to the accumulation of acetylated H4-histones within one to six hours being an indicator for a histone deacetylase inhibitor.

various tumour cells [12] = conditions: cited from earlier work

Structure (SMILES): CC1NC(=O)C(C)NC(=O)C2CCCN2C(=O)C(CCCCCC(=O)C2CO2)NC1=O (stereo not drawn) [HC-Toxin, Helminthosporium carbonum toxin]
- inhibition of proliferation of Be(2)-C cells [1]: efficiently inhibits proliferation
- inhibition of proliferation of WAC2 cells [2]: efficiently inhibits proliferation
- SH-EP neuroblastoma cells that differentiate morphologically ([3]; 15 nM HC-Toxin, neurites longer than twice the diameter of the cell body): More than 95%
- time of treatment after which neurite outgrowth reached its maximum ([3]; 10 to 20 nM, SH-EP cells): 72 h
- time of treatment after which neurite outgrowth was observed ([3]; 10 to 20 nM, SH-EP cells): 36 h
- cell cycle of primary skin fibroblasts (primary skin fibroblasts [4]): does not alter the cell cycle; also recorded: No significant changes
- proliferation of primary skin fibroblasts (primary skin fibroblasts [5]): No significant changes
- proliferation of primary skin fibroblasts (primary skin fibroblasts [5]; listed as HC-toxin): has no influence upon the proliferation
- accumulation of acetylated histone H4 [6]: induces hyperacetylation of histone H4
- accumulation of acetylated histone H4 ([6]; listed as iHC-Toxin): induce accumulation of acetylated histone H4
- cell cycle distribution of SH-EP cells [7]: accumulation of the HC-Toxin treated cells in the G0/1 phase
- inhibition of proliferation of Tet21N cells [8]: efficiently inhibits proliferation
- induction of apoptosis in SH-EP cells [9]: induces apoptosis in a concentration dependent manner
- inhibition of SH-EP neuroblastoma cell proliferation [10]: inhibits cell proliferation in a concentration dependent manner; also recorded: concentration-dependent inhibition

Structure (SMILES): CC1=C(/C=C/C(C)=C/C=C/C(C)=C/C(=O)O)C(C)(C)CCC1 [all-trans retinoic acid, reference compound]
- concentration to be administered compared to HC-toxin (various tumour cells [11]): 1000 fold
- accumulation of acetylated histone H4 [6]: no induction of hyperacetylation of histone H4

Structure (SMILES): CC(/C=C/C(=O)NO)=C\[C@@H](C)C(=O)c1ccc(N(C)C)cc1 [trichostatin A]
- cytotoxic effects (various tumour cells [12]): strong cytotoxic effects

Structure (SMILES): CCCC(CCC)C(=O)O [valproic acid]
- efficient concentration (various tumour cells [12]; not achievable in vivo): only efficient in millimolar concentrations
